Measured values: patent US20020137929A1, “1 - (3-heterocyclylphenyl) isothiourea, -isourea, -guanidine and -amidine herbicidal agents” (Intellectual Property Department, BASF Aktiengesellschaft, priority 1998, published 2002)

Assays:
SETVI (Foxtail, Green) [1] = assay: Postemergence herbicidal evaluation; type: in vivo, Setaria viridis; details: postemergence
How it was run: (§1)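 Scores (0–9) reflect plant stand, vigor, malformation, size, chlorosis and general appearance relative to control, read 4 to 5 weeks after treatment and averaged where tests were repeated. Application: about 0.0156–0.500 kg/ha sprayed at 40 psi onto two-week seedlings.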

ORYSAT (Rice, Tebonnet) = assay: Postemergence herbicidal evaluation; type: in vivo, Oryza sativa, (L.) Tebonnet; details: postemergence
How it was run: as §1

ZEAMX (Corn, Field) [2] = assay: Postemergence herbicidal evaluation; type: in vivo, Zea mays; details: postemergence
How it was run: as §1

ECHCG (Barnyardgrass) = assay: Preemergence herbicidal evaluation; type: in vivo, Echinochloa crus-galli; details: rated 4-5 weeks after treatment, rating scale 0-9
How it was run: (§2)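 Visual 0-9 rating vs control (stand, vigor, malformation, size, chlorosis, overall appearance), scored 4-5 wk after spraying. Seeded soil cups were treated preemergence with compound in aqueous acetone, ~0.0156-0.500 kg/ha equivalent.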

SETVI (Foxtail, Green) [3] = assay: Preemergence herbicidal evaluation; type: in vivo, Setaria viridis; details: rated 4-5 weeks after treatment, rating scale 0-9
How it was run: as §2

[4] = system: TRZAWR (Wheat, Winter, cv Riband); assay: Preemergence herbicidal evaluation; type: in vivo, Triticum aestivum; details: rated 4-5 weeks after treatment, rating scale 0-9
How it was run: as §2

ZEAMX (Corn, Field) [5] = assay: Preemergence herbicidal evaluation; type: in vivo, Zea mays; details: rated 4-5 weeks after treatment, rating scale 0-9
How it was run: as §2

[6] = system: ECHORC (Watergrass (Calif.)); assay: Preemergence weed control under flooded paddy conditions; type: in vivo, Echinochloa oryzoides; details: rated 3-4 weeks after treatment
How it was run: (§3)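 Ratings on a 0-9 visual scale cover stand, vigor, malformation, size, chlorosis and overall appearance relative to a control, taken three to four weeks post-treatment. Application was into flood water over freshly sown silt loam at roughly 0.0313 to 0.500 kg/ha.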

CYPIR (Rice Flatsedge) = assay: as above; type: in vivo, Cyperus iria; details: rated 3-4 weeks after treatment
How it was run: as §3

CYPSE (Flatsedge) = assay: as above; type: in vivo, Cyperus serotinus; details: rated 3-4 weeks after treatment
How it was run: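 First, seeds or propagules go into the top 0.5 cm of silt loam; next, water is held 1.5 to 3 cm over the soil; then compound (50/50 acetone/water) is pipetted into it at about 0.0313 to 0.500 kg/ha; finally plants are rated visually 0-9 after three to four weeks.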

SMILES: Cc1cc(C)cc(CN2C(=O)CSC2=Nc2cc(-n3c(=O)cc(C(F)(F)F)n(C)c3=O)c(F)cc2Cl)c1 [Compound 146, 3-{4-Chloro-5-{[3-(3,5-dimethylbenzyl)-4-oxo-2-thiazolidinylidene]amino}-2-fluorophenyl}-1-methyl-6-(trifluoromethyl)-2,4(1H,3H)-pyrimidinedione]
- Herbicidal rating SETVI (SETVI (Foxtail, Green) [1]; rate 0.0156 kg/ha): 1.0
- Herbicidal rating SETVI (SETVI (Foxtail, Green) [1]; rate 0.0313 kg/ha): 2.0
- Herbicidal rating SETVI (SETVI (Foxtail, Green) [1]; rate 0.0625 kg/ha): 3.0
- Herbicidal rating ORYSAT (ORYSAT (Rice, Tebonnet); rate 0.0156 kg/ha): 2.0
- Herbicidal rating ORYSAT (ORYSAT (Rice, Tebonnet); rate 0.0313 kg/ha): 3.5
- Herbicidal rating ORYSAT (ORYSAT (Rice, Tebonnet); rate 0.0625 kg/ha): 4.0
- Herbicidal rating ZEAMX (ZEAMX (Corn, Field) [2]; rate 0.0156 kg/ha): 4.0
- Herbicidal rating ZEAMX (ZEAMX (Corn, Field) [2]; rate 0.0313 kg/ha): 4.5
- Herbicidal rating ZEAMX (ZEAMX (Corn, Field) [2]; rate 0.0625 kg/ha): 4.5
- Preemergence herbicidal rating ECHCG (ECHCG (Barnyardgrass); rate 0.0156 kg/ha): 0.0
- Preemergence herbicidal rating ECHCG (ECHCG (Barnyardgrass); rate 0.0313 kg/ha): 0.0
- Preemergence herbicidal rating ECHCG (ECHCG (Barnyardgrass); rate 0.0625 kg/ha): 0.0
- Preemergence herbicidal rating ECHCG (ECHCG (Barnyardgrass); rate 0.1250 kg/ha): 0.0
- Preemergence herbicidal rating ECHCG (ECHCG (Barnyardgrass); rate 0.2500 kg/ha): 0.0
- Preemergence herbicidal rating SETVI (SETVI (Foxtail, Green) [3]; rate 0.0156 kg/ha): 0.0
- Preemergence herbicidal rating SETVI (SETVI (Foxtail, Green) [3]; rate 0.0313 kg/ha): 0.0
- Preemergence herbicidal rating SETVI (SETVI (Foxtail, Green) [3]; rate 0.0625 kg/ha): 0.0
- Preemergence herbicidal rating SETVI (SETVI (Foxtail, Green) [3]; rate 0.1250 kg/ha): 3.0
- Preemergence herbicidal rating SETVI (SETVI (Foxtail, Green) [3]; rate 0.2500 kg/ha): 5.0
- Preemergence herbicidal rating TRZAWR ([4]; rate 0.0156 kg/ha): 0.0
- Preemergence herbicidal rating TRZAWR ([4]; rate 0.0313 kg/ha): 0.0
- Preemergence herbicidal rating TRZAWR ([4]; rate 0.0625 kg/ha): 0.0
- Preemergence herbicidal rating TRZAWR ([4]; rate 0.1250 kg/ha): 0.0
- Preemergence herbicidal rating TRZAWR ([4]; rate 0.2500 kg/ha): 1.0
- Preemergence herbicidal rating ZEAMX (ZEAMX (Corn, Field) [5]; rate 0.0156 kg/ha): 0.0
- Preemergence herbicidal rating ZEAMX (ZEAMX (Corn, Field) [5]; rate 0.0313 kg/ha): 0.0
- Preemergence herbicidal rating ZEAMX (ZEAMX (Corn, Field) [5]; rate 0.0625 kg/ha): 0.0
- Preemergence herbicidal rating ZEAMX (ZEAMX (Corn, Field) [5]; rate 0.1250 kg/ha): 0.0
- Preemergence herbicidal rating ZEAMX (ZEAMX (Corn, Field) [5]; rate 0.2500 kg/ha): 0.0
- herbicidal effect rating, ECHORC ([6]; 0.0313 kg/ha): 9.0
- herbicidal effect rating, ECHORC ([6]; 0.0625 kg/ha): 9.0
- herbicidal effect rating, ECHORC ([6]; 0.1250 kg/ha): 9.0
- herbicidal effect rating, ECHORC ([6]; 0.2500 kg/ha): 9.0
- herbicidal effect rating, CYPIR (CYPIR (Rice Flatsedge); 0.0313 kg/ha): 4.0
- herbicidal effect rating, CYPIR (CYPIR (Rice Flatsedge); 0.0625 kg/ha): 6.0
- herbicidal effect rating, CYPIR (CYPIR (Rice Flatsedge); 0.1250 kg/ha): 6.0
- herbicidal effect rating, CYPIR (CYPIR (Rice Flatsedge); 0.2500 kg/ha): 7.0
- herbicidal effect rating, CYPSE (CYPSE (Flatsedge); 0.0313 kg/ha): 0.0
- herbicidal effect rating, CYPSE (CYPSE (Flatsedge); 0.0625 kg/ha): 0.0
- herbicidal effect rating, CYPSE (CYPSE (Flatsedge); 0.1250 kg/ha): 0.0
- herbicidal effect rating, CYPSE (CYPSE (Flatsedge); 0.2500 kg/ha): 0.0

SMILES: Cc1ccc(CN2C(=O)CSC2=Nc2cc(-n3c(=O)cc(C(F)(F)F)n(C)c3=O)c(F)cc2Cl)cc1Cl [Compound 149, 3-{4-Chloro-5-{[3-(3-chloro-4-methylbenzyl)-4-oxo-2-thiazolidinylidene]amino}-2-fluorophenyl}-1-methyl-6-(trifluoromethyl)-2,4(1H,3H)-pyrimidinedione]
- Herbicidal rating SETVI (SETVI (Foxtail, Green) [1]; rate 0.0156 kg/ha): 0.0
- Herbicidal rating SETVI (SETVI (Foxtail, Green) [1]; rate 0.0313 kg/ha): 0.0
- Herbicidal rating SETVI (SETVI (Foxtail, Green) [1]; rate 0.0625 kg/ha): 0.0
- Herbicidal rating ORYSAT (ORYSAT (Rice, Tebonnet); rate 0.0156 kg/ha): 0.5
- Herbicidal rating ORYSAT (ORYSAT (Rice, Tebonnet); rate 0.0313 kg/ha): 1.0
- Herbicidal rating ORYSAT (ORYSAT (Rice, Tebonnet); rate 0.0625 kg/ha): 1.0
- Herbicidal rating ZEAMX (ZEAMX (Corn, Field) [2]; rate 0.0156 kg/ha): 4.0
- Herbicidal rating ZEAMX (ZEAMX (Corn, Field) [2]; rate 0.0313 kg/ha): 4.5
- Herbicidal rating ZEAMX (ZEAMX (Corn, Field) [2]; rate 0.0625 kg/ha): 4.5
- Preemergence herbicidal rating ECHCG (ECHCG (Barnyardgrass); rate 0.1250 kg/ha): 0.0
- Preemergence herbicidal rating ECHCG (ECHCG (Barnyardgrass); rate 0.2500 kg/ha): 0.0
- Preemergence herbicidal rating SETVI (SETVI (Foxtail, Green) [3]; rate 0.1250 kg/ha): 0.0
- Preemergence herbicidal rating SETVI (SETVI (Foxtail, Green) [3]; rate 0.2500 kg/ha): 0.0
- Preemergence herbicidal rating TRZAWR ([4]; rate 0.1250 kg/ha): 0.0
- Preemergence herbicidal rating TRZAWR ([4]; rate 0.2500 kg/ha): 2.0
- Preemergence herbicidal rating ZEAMX (ZEAMX (Corn, Field) [5]; rate 0.1250 kg/ha): 0.0
- Preemergence herbicidal rating ZEAMX (ZEAMX (Corn, Field) [5]; rate 0.2500 kg/ha): 2.0
- herbicidal effect rating, ECHORC ([6]; 0.0313 kg/ha): 2.0
- herbicidal effect rating, ECHORC ([6]; 0.0625 kg/ha): 3.0
- herbicidal effect rating, ECHORC ([6]; 0.1250 kg/ha): 6.0
- herbicidal effect rating, ECHORC ([6]; 0.2500 kg/ha): 7.0
- herbicidal effect rating, CYPIR (CYPIR (Rice Flatsedge); 0.0313 kg/ha): 3.0
- herbicidal effect rating, CYPIR (CYPIR (Rice Flatsedge); 0.0625 kg/ha): 4.0
- herbicidal effect rating, CYPIR (CYPIR (Rice Flatsedge); 0.1250 kg/ha): 7.0
- herbicidal effect rating, CYPIR (CYPIR (Rice Flatsedge); 0.2500 kg/ha): 4.0
- herbicidal effect rating, CYPSE (CYPSE (Flatsedge); 0.0313 kg/ha): 0.0
- herbicidal effect rating, CYPSE (CYPSE (Flatsedge); 0.0625 kg/ha): 0.0
- herbicidal effect rating, CYPSE (CYPSE (Flatsedge); 0.1250 kg/ha): 0.0
- herbicidal effect rating, CYPSE (CYPSE (Flatsedge); 0.2500 kg/ha): 0.0
